These results are taken from ChEMBL document CHEMBL2429778, “Hydroxyclerodanes from Salvia shannoni” (J Nat Prod, 2013).

In one experiment the test system is Giardia intestinalis. Briefly: Antiprotozoal activity against clinical isolates of Giardia lamblia IMSS:8901:1. Conditions: Giardia duodenalis. It counts as functional, organism-based.
In another experiment the test system is Entamoeba histolytica. Briefly: Antiprotozoal activity against clinical isolates of Entamoeba histolytica HM-1:IMSS. Format: functional, organism-based.
The next experiment relates to SK-LU-1. Nature of the experiment: Cytotoxicity against human SKLU1 cells after 48 hrs by SRB method. Format: functional, cell-based. The following applies: SK-LU-1, 48 h. A general note: In SRB staining, fixed cells bind dye roughly in proportion to their protein.
Another experiment has as its system Mus musculus. Nature of the experiment: Antiinflammatory activity against TPA-induced CD-1 mouse ear edema model assessed as swelling per ear after 4 hrs relative to control. Format: functional, organism-based.
The next experiment deals with PC-3. Briefly: Cytotoxicity against human PC3 cells after 48 hrs by SRB method. It counts as functional, cell-based. Conditions: PC-3, 48 h.
The next experiment concerns K562. Nature of the experiment: Cytotoxicity against human K562 cells after 48 hrs by SRB method. Format: functional, cell-based. The following applies: K562, 48 h.
Another experiment deals with U-251. Nature of the experiment: Cytotoxicity against human U251 cells after 48 hrs by SRB method. It counts as functional, cell-based. The following applies: U-251, 48 h.
Another experiment relates to HCT-15. Briefly: Cytotoxicity against human HCT15 cells after 48 hrs by SRB method. It counts as functional, cell-based. The following applies: HCT-15, 48 h.
The test system of the next experiment is MCF7. Nature of the experiment: Cytotoxicity against human MCF7 cells after 48 hrs by SRB method. It counts as functional, cell-based. Conditions: MCF7, 48 h.

≈ marks a conversion by molar mass, not a printed value. Bounds are passed on as bounds.

For the compound `C[C@]12C[C@H](c3ccoc3)OC(=O)[C@H]1CC[C@@]13COC(=O)[C@H]1C[C@@H]1O[C@@H]1[C@]32O`, the IC50 is 63.3 mg/L (≈ 169 µM) with Giardia intestinalis; 56.8 mg/L (≈ 152 µM) in the experiment on Entamoeba histolytica; over 50 µM in the experiment on SK-LU-1; over 1 µmol in the experiment on Mus musculus; over 50 µM in the experiment with PC-3; over 50 µM in the experiment with K562. The IC50 in the experiment on U-251, in the experiment on HCT-15 and with MCF7 was over 50 µM each time.

Regarding `C[C@]12C[C@H](c3ccoc3)OC(=O)[C@@]1(O)CC[C@@]13COC(=O)[C@H]1CC=C[C@]32O`, the IC50 in the experiment on Giardia intestinalis was found to be 85.8 mg/L (≈ 229 µM); in the experiment on Entamoeba histolytica, 79.7 mg/L (≈ 213 µM).

With `C[C@]12C[C@H](c3ccoc3)OC(=O)[C@H]1CC[C@@]13COC(=O)[C@H]1CC=C[C@]32O`, the IC50 in the experiment with Giardia intestinalis is 94.8 mg/L (≈ 265 µM); with Entamoeba histolytica, 84.7 mg/L (≈ 236 µM); with SK-LU-1, over 50 µM; in the experiment on Mus musculus, over 1 µmol; with PC-3, over 50 µM; in the experiment on K562, over 50 µM. Also, the IC50 in the experiment on U-251, in the experiment on HCT-15 and in the experiment with MCF7 was over 50 µM in each case.

Turning to `C[C@]12C[C@H](c3ccoc3)OC(=O)[C@@]1(O)CC[C@@]13COC(=O)[C@H]1CC=C[C@H]32`, the IC50 in the experiment with Giardia intestinalis was 73.1 mg/L (≈ 204 µM); in the experiment on Entamoeba histolytica it was 63.3 mg/L (≈ 177 µM); with SK-LU-1, over 50 µM; in the experiment with Mus musculus, over 1 µmol; in the experiment on PC-3 it was over 50 µM; in the experiment with K562, over 50 µM. In addition, the IC50 in the experiment on U-251, with HCT-15 and with MCF7 was over 50 µM throughout.

On to `C[C@]12C[C@H](c3ccoc3)OC(=O)[C@@]1(O)CC[C@@]13COC(=O)[C@]1(O)CC=C[C@]23O`, for which the IC50 in the experiment on Giardia intestinalis was 82.1 mg/L (≈ 210 µM); with Entamoeba histolytica, 76.3 mg/L (≈ 195 µM); with SK-LU-1, over 50 µM; in the experiment with Mus musculus, over 1 µmol; in the experiment with PC-3 it was over 50 µM; in the experiment on K562, over 50 µM. The IC50 in the experiment with U-251, in the experiment with HCT-15 and with MCF7 was over 50 µM throughout.

In the case of `C[C@]12C[C@H](c3ccoc3)OC(=O)[C@@]1(O)CC[C@@]13COC(=O)[C@@H]1C=CC[C@@H]32`, the IC50 in the experiment with Giardia intestinalis was 42.4 mg/L (≈ 118 µM); in the experiment with Entamoeba histolytica, 56.5 mg/L (≈ 158 µM); with SK-LU-1, over 50 µM; with Mus musculus, over 1 µmol; in the experiment with PC-3 it was over 50 µM; with K562, over 50 µM. Further, the IC50 in the experiment with U-251, in the experiment with HCT-15 and in the experiment on MCF7 was over 50 µM in each case.

Consider `C[C@]12C[C@H](c3ccoc3)OC(=O)[C@H]1CC[C@@]13COC(=O)[C@@H]1C=C[C@@H](O)[C@H]23`, for which the IC50 in the experiment with Giardia intestinalis was 71.7 mg/L (≈ 200 µM); in the experiment on Entamoeba histolytica it was 57.4 mg/L (≈ 160 µM).

Consider `Oc1cc(O)c2c(c1)O[C@H](c1ccc(O)c(O)c1)[C@@H](O)C2` [CIANIDANOL], for which the IC50 stood at 33.9 mg/L (≈ 117 µM) in the experiment on Giardia intestinalis and 65.6 mg/L (≈ 226 µM) in the experiment with Entamoeba histolytica.

For `C[C@]12C[C@H](c3ccoc3)OC(=O)[C@@]1(O)CC[C@@]13COC(=O)C1=CC[C@H]1O[C@]132` [TEHUANINE G], the IC50 in the experiment with Giardia intestinalis stood at 86.4 mg/L (≈ 232 µM); in the experiment on Entamoeba histolytica, 71.2 mg/L (≈ 191 µM).

In the case of `NCCc1ccc(O)cc1` [TYRAMINE], the figures for the IC50 in the experiment on Giardia intestinalis and in the experiment on Entamoeba histolytica were 68.9 mg/L (≈ 502 µM) and 54.2 mg/L (≈ 395 µM), respectively.
